Patent US5756502A, “Quinazolinone derivatives as cholyecystokinin (CCK) ligands” (Warner-Lambert Company, priority 1995, dated 1998)
Like-named read-outs stand apart in the source and are kept apart here. Each block holds one compound with its values, some of them ahead of it.

Tests used:
[1] = target: T1, CCK-B receptor (Mus musculus, UniProt P56481); test: CCK-B receptor binding (displacement of tritiated-pentagastrin from mouse cerebral cortical membranes)
T1 construct: from tissue; host or cells: cerebral cortex of male CFLP mice (membranes)
T1 sequence (P56481 1-453): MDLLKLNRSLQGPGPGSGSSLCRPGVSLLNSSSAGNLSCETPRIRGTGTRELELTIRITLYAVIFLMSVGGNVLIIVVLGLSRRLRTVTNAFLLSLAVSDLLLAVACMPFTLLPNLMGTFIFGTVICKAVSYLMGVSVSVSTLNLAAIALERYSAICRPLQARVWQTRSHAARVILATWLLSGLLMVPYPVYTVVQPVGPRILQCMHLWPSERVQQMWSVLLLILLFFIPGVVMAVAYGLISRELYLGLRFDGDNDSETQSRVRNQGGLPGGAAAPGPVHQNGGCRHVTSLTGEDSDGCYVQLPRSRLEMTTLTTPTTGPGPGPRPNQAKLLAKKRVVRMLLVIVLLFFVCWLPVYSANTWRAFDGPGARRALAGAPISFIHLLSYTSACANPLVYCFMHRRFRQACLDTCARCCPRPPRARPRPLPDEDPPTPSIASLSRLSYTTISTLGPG
Experimental: (§1) The biological activity of compounds of the present invention may be evaluated by employing an initial screening test which rapidly and accurately measures the binding of the tested compound to known CCK receptor sites. […] (See Hays, et al., Neuropeptides 1:53-62, 1980; and Satuer, et al., Science 208:1155-1156, 1980).
In this screening test, the cerebral cortices taken from male CFLP mice weighing between 30 to 40 g were dissected on ice, weighed, and homogenized in 10 volumes of 50 mM Tris-HCl buffer (pH 7.4 at 0°-4° C.). The resulting suspension was centrifuged, the supernate was discarded, and the pellet was washed by resuspension in Tris-HCl buffer followed by recentrifugation. The final pellet was resuspended in 20 volumes of […] buffer (pH 7.2 at 23° C.) containing 130 mM NaCl, […], […].
In saturation studies, cerebral cortical membranes were incubated at 23° C. for 120 minutes in a final volume of 500 μL of Hepes incubation buffer (pH 7.2) together with 0.2-20 nM tritiated-pentagastrin (Amersham International, England).
In the displacement experiments, membranes were incubated with a single concentration (2 nM) of ligand, together with increasing concentrations (10^-11 to 10^-6 M) of competitive test compound. In each case, the nonspecific binding was defined as that persisting in the presence of the unlabeled octapeptide CCK26-33 (10^-6 M)
Following incubation, radioactivity bound to membranes was separated from that free in solution by rapid filtration through Whatman GF/B filters and washed three times with 4 mL of ice cold Tris-HCl buffer. Filters from samples incubated with tritiated-pentagastrin were placed in polyethylene vials with 4 mL of scintillation cocktail, and the radioactivity was estimated by liquid scintillation spectrometry (efficiency 47-52%). […]
Saturation curves for specific tritiated-pentagastrin binding to mouse cortical membranes were analyzed by the methods of Scatchard (Ann. New York Acad. Sci. 51:660-672, 1949), and Hill (J. Physiol. 40:IV-VIII, 1910), to provide estimates for the maximum number of binding sites (Bmax) and the equilibrium dissociation constant (Ka)
In displacement experiments, inhibition curves were analyzed by either logit-log plots or the iterative curve fitting computer program ALLFIT (DeLean, Munson, and Redbard, 1978) to provide estimates of the IC50 and nH (apparent Hill coefficient values). […]
The inhibition constant (Ki) of the test compound was then calculated according to the Cheng-Prusoff equation: [formula] where [L] is the concentration of radiolabel and Ka is the equilibrium dissociation constant. […]

[2] = tested on: CCK-A receptor; test: CCK-A receptor binding
Experimental: as §1
In displacement experiments, inhibition curves were analyzed by either logit-log plots or the iterative curve fitting computer program ALLFIT (DeLean, Munson, and Redbard, 1978) to provide estimates of the IC50 and nH (apparent Hill coefficient values). (IC50 values were defined as the concentration of test compound required to produce 50% inhibition of specific binding).
The inhibition constant (Ki) of the test compound was then calculated according to the Cheng-Prusoff equation: [formula] where [L] is the concentration of radiolabel and Ka is the equilibrium dissociation constant.
The Ki values for several representative compounds of the present invention are present in Table 1.
The following table represents the CCK-A and CCK-B receptor binding affinities of the compounds. [drawing 34]
The testing procedures are disclosed in Hays, et al., Neuropeptides 1:53-62, 1980; and Satuer, et al., Science 208:1155-1156, 1980.

[3] = tested on: CCK-A receptors; details: words; cited from earlier work
[4] = tested on: CCK-B receptors; details: words; cited from earlier work
[5] = 2 nM tritiated-pentagastrin, Hepes buffer pH 7.2, 23° C., read-out: CCK-B (Ki)

Compound: CC(C)Oc1cccc(-n2c(CNC(=O)OCc3ccccc3)nc3ccccc3c2=O)c1
Ki [1, 5]: 0.62 µM

Compound: CC(C)Oc1cccc(-n2c(CNC(=O)c3cnc4ccccc4n3)nc3ccccc3c2=O)c1 [1 -- 2-Quinoxolinyl, 2-Quinoxalinecarboxamide, N-[[1,2-dihydro-3-[3-(1-methylethoxy)phenyl]-4-oxo-2-quinazolinyl]methyl]]
Ki [1, 5]: 0.842 µM
CCK-A, % @ 10 μM (in the Ki column) ([2]; @ 10 μM): 29%

Compound: CC(C)Oc1cccc(-n2c(CNC(=O)NCc3ccc(Br)cc3)nc3ccccc3c2=O)c1 [1 NH 4-BrPhCH2]
Ki ([2]; read-out: CCK-A (Ki)): 3.1 µM

Compound: CC(C)Oc1cccc(-n2c(CCNC(=O)OCc3ccccc3)nc3ccccc3c2=O)c1 [2 O PhCH2]
Ki [1, 5]: 0.768 µM
Ki ([2]; read-out: CCK-A (Ki)): 2.77 µM

Compound: CCK-4
affinity for CCK-A receptors [3]: lower affinity
affinity for CCK-B receptors [4]: high affinity

Compound: CCK-8S: sulfated octapeptide (CCK-8S)
affinity for CCK-A receptors [3]: high affinity
affinity for CCK-B receptors [4]: high affinity

Compound: CCK-8d: corresponding desulfated fragment CCK-8d
affinity for CCK-A receptors [3]: lower affinity

Compound: gastrin: gastrin peptide sharing a common carboxy terminal pentapeptide sequence with CCK
affinity for CCK-A receptors [3]: lower affinity
affinity for CCK-B receptors [4]: high affinity

Continued, values first:

Ki ([2]; read-out: CCK-A (Ki)): 1.47 µM
Compound: CCOC(=O)c1cccc(NC(=O)NCc2nc3ccccc3c(=O)n2-c2cccc(OC(C)C)c2)c1 [1 NH 3-COOEtPh, Benzoic Acid, 3-[[[3,4-dihydro-3-[3-(1-methylethoxy)phenyl]-4-oxo-2-quinazolinyl]methyl]amino]carbonylamino-, ethyl ester]

Ki ([2]; read-out: CCK-A (Ki)): 1.64 µM
Compound: Cc1cccc(NC(=O)NCc2nc3ccccc3c(=O)n2-c2cccc(OC(C)C)c2)c1 [1 NH 3-MePh, Urea, N-[[3,4-dihydro-3-[3-(1-methylethoxy)phenyl]-4-2-quinazolinyl]methyl]-N-(3-methylphenyl)]

Ki ([2]; read-out: CCK-A (Ki)): 0.984 µM
Compound: CC(C)Oc1cccc(-n2c(CNC(=O)Nc3ccc(Br)cc3)nc3ccccc3c2=O)c1 [1 NH 4-BrPh, Urea, N-(4-bromophenyl)-N-[[3,4-dihydro-3-[3-(1-methylethoxy)phenyl]-4-2-quinazolinyl]methyl]]

Ki ([2]; read-out: CCK-A (Ki)): 0.674 µM
Compound: CC(C)Oc1cccc(-n2c(CNC(=O)Nc3ccc(C(F)(F)F)cc3)nc3ccccc3c2=O)c1 [1 NH 4-CF3 Ph]

Ki ([2]; read-out: CCK-A (Ki)): 0.385 µM
Compound: CC(C)Oc1cccc(-n2c(CNC(=O)Nc3ccc([N+](=O)[O-])cc3)nc3ccccc3c2=O)c1 [1 NH 4-NO2 Ph]

Ki ([1]; bound printed in μM in the Ki, nM column, read-out: CCK-B Ki (cell in μM)): > 1 µM
Ki ([2]; bound printed in μM in the Ki, nM column, read-out: CCK-A Ki (cell in μM)): > 1 µM
Compound: Cc1ccc(S(=O)(=O)NC(=O)NCc2nc3ccccc3c(=O)n2-c2cccc(OC(C)C)c2)cc1 [1 NHSO2 4-CH3 Ph, Benzenesulfonamide, N-[[[[3,4-dihydro-[3-(1-methylethoxy)phenyl]-4-oxo-2-quinazolinyl]methyl]amino]carboxy]-4-methyl]

Ki ([2]; read-out: CCK-A (Ki)): 1.63 µM
Compound: CC(C)Oc1cccc(-n2c(CCNC(=O)Nc3ccc(Br)cc3)nc3ccccc3c2=O)c1 [2 NH 4-BrPh, Urea, N-(4-bromophenyl)-N'-[2-[3,4-dihydro-3-[3-(1-methylethoxy)phenyl]-4-oxo-2-quinazolinyl]ethyl]]
